The text below walks through data of US5070078A, “Antiviral compounds” (Burroughs Wellcome Co., priority 1987, dated 1991).

pIC50: −log10 of the molar value.

One data set concerns adenovirus serotype 5. Description: anti-adenovirus activity against serotype 5 (statement only). In kind it is cell-based.
For another data set, the system named is adenovirus of serotype 8. In words: anti-adenoviral activity, plaque assay in human epithelial cell line NCTC 2544 (EP). The format is cell-based, adenovirus type 8. As to the method:
The anti-adenoviral activity of Compound No. 1 referred to above was tested as follows:
(§1) Cells of human epithelial cell line NCTC 2544 (EP) were serially passaged from 75 cm^2 tissue culture flasks (Corning) at a spilt ratio of 1/20 every 7 days. The growth medium was Eagles BHK medium supplemented with 10% foetal bovine serum and contained 2.5% of 4.4% sodium bicarbonate solution together with 1% of penicillin (5000 IU ml^-1) and streptomycin (600 μg ml^-1) (Flow).
A stock of adenovirus of type 8 was prepared in 25 cm^2 tissue culture flasks. Flasks were seeded with 2×10^6 EP cells in growth medium and incubated overnight at 37° C. The medium was decanted and 1.0 ml of stock virus suspension was added to the flask. After 1.0 hr adsorption 10 ml of maintenance medium (as above but with 2% serum) was added to the flask.
The flask were incubated at 37° C. After 72 hrs the classical'bunch of grapes' cytopathic effect was visible. The flasks were then frozen and thawed 3 times to liberate the virus and stored at -70° C. Viral titres were usually of the order of 4×10^8 pfu ml^-1.
The plaque assay was performed in 50 mm diameter plastic tissue culture dishes which were initially seeded with 2×10^6 EP cells in growth medium and incubated overnight in 5% CO2 at 37° C. […]

A short description of data set [1]: Cytotoxicity Determination, trypan blue exclusion method. In kind it is cell-based. The settings on record: human, NCTC 2544 cells, read-out: 50% cell culture inhibitory concentration. The procedure:
as §1
Cytotoxicity was determined by means of the trypan blue exclusion method. NCTC 2544 cells were prepared in growth medium and aliquots added to […] tissue culture flasks at approximately 1×10^5 cells/ml. At 24 hours the flasks were divided and replenished with growth medium. One half of the flasks received growth medium containing 10 fold dilutions of compound thus exposing the cells to 1, 10, and 100 μM concentrations. At 24, 48, and 72 hours representative flasks were removed from the incubator and the monolayers washed to remove debris. The cells were resuspended in growth medium and aliquots mixed with an equal volume of trypan blue. Stained and unstained cells were counted in a haemocytometer. Cell counts were adjusted to cells/ml. An estimate of the growth and viability of treated and untreated cells was then made.

What is called pIC50 is the IC50 on a negative log10 scale, so that one unit is a factor of ten. A higher pIC50 goes with a small IC50. Turning to `Cc1cn([C@H]2C[C@H](F)[C@@H](CO)O2)c(=O)[nH]c1=O` [Compound No. 1, 2',3'-dideoxy-3'-fluorothymidine], the “anti-adenovirus activity (in words)” value in the data set on adenovirus serotype 5 and in the data set on adenovirus of serotype 8 (serotype 8) was “particularly high anti-adenovirus activity” in each case. In addition, the pIC50 with adenovirus of serotype 8 (unidentified adenovirus, NCTC-2544, adenovirus serotype 8, EP cells, plaque assay) was 8.30. For the same molecule, the CC50 at 72 h in data set [1] came to 38 µM.
